Measurements: patent US20210047653A1, “COMPOSITIONS AND METHODS FOR REGULATING A BIOLOGICAL PROCESS” (The University of Memphis Research Foundation, priority 2018, published 2021)

System: endogenous BMP-2
Experiment: CRISPR activation of endogenous BMP-2, qPCR in transfected HEK-293T cells
Format: cell-based, human
Details: qPCR 24 hours after transfection with constitutively-expressed dCas9-VPR, normalized to HPRT
Procedure: HEK-293T cells were transfected with constitutively-expressed dCas9-VPR (Addgene #63798) and gRNA-expressing plasmids (Addgene #41824, sequences targeting the 150 bp region of the transcription start site of the endogenous BMP-2 was cloned into the vector; gRNA2 seq: […], gRNA3 seq: […], GFP seq:). After 24 hours, BMP-2 induction was measured by qPCR, following manufacturer protocols. Groups of HEK-293T cells tested were: Untransfected (UT), dCas9-VPR (VPR), GFP, gRNA2, and gRNA3. All groups were normalized to Hypoxanthine-guanine phosphoribosyltransferase (HPRT) expression (FIG. 27). Untransfected, dCas9-VPR, gRNA2, and gRNA3 groups were compared to GFP to elucidate increase in expression levels (FIG. 28).

Substance	induction of endogenous BMP-2 expression compared to GFP group
gRNA2: gRNA-expressing plasmid targeting the 150 bp region of the transcription start site of endogenous BMP-2; seq GGCGAGCCGCGCCGCGAAGG (expressed from plasmid)	112 fold
gRNA3: gRNA-expressing plasmid targeting the 150 bp region of the transcription start site of endogenous BMP-2; seq GCTCGCCGGGGATCCCCGAG (expressed from plasmid)	77 fold
